In US10519114B2, “Peptidomimetics and methods of using the same” (The Regents of the University of Michigan, priority 2016, dated 2019):

Legend:
[1] = molecular target: T1, rat μ (C6-MOR) opioid receptor (Rattus norvegicus, UniProt P33535); experiment: Radioligand binding assay, [3H]diprenorphine displacement, MOR; settings: displacement of 0.2 nM [3H]diprenorphine, C6-MOR membranes; mean ± standard error
T1 construct: expressed in transfected cells
Protocol: (§1) In Vitro Pharmacology-Cell Lines and Membrane Preparations. All tissue culture reagents were purchased from Gibco Life Sciences (Grand Island, N.Y., U.S.). C6-rat glioma cells stably transfected with a rat μ (C6-MOR) or rat δ (C6-DOR) opioid receptor20 and Chinese hamster ovary (CHO) cells stably expressing a human K (CHO-KOR) opioid receptor21 were used for all in vitro assays. Cells were grown to confluence at 37° C. in 5% CO2 in Dulbecco's modified Eagle medium containing 10% fetal bovine serum and 5% penicillin/streptomycin. Membranes were prepared by washing confluent cells three times with ice cold phosphate buffered saline (0.9% NaCl, 0.61 mM Na2HPO4, 0.38 mM KH2PO4, pH 7.4). Cells were detached from the plates by incubation in warm harvesting buffer (20 mM HEPES, 150 mM NaCl, 0.68 mM EDTA, pH 7.4) and pelleted by centrifugation at 200 g for 3 min. The cell pellet was suspended in ice-cold 50 mM Tris-HCl buffer, pH 7.4, and homogenized with a Tissue Tearor (Biospec Products, Inc., Bartlesville, Okla., U.S.) for 20 s at setting 4. The homogenate was centrifuged at 20 000 g for 20 min at 4° C., and the pellet was rehomogenized in 50 mM Tris-HCl with a Tissue Tearor for 10 s at setting 2, followed by recentrifugation. The final pellet was resuspended in 50 mM Tris-HCl and frozen in aliquots at […]. Protein concentration was determined via Bradford assay using bovine serum albumin as the standard.
(§2) Radioligand Binding Assays. Radioactive compounds were purchased from Perkin-Elmer (Waltham, Mass., U.S.). Opioid ligand binding assays were performed using competitive displacement of 0.2 nM [3H]diprenorphine (250 μCi, 1.85 TBq/mmol) by the test compound from membrane preparations containing opioid receptors. The assay mixture, containing membrane suspension (20 μg protein/tube) in 50 mM Tris-HCl buffer (pH 7.4), [3H]diprenorphine, and various concentrations of test peptide, was incubated at room temperature for 1 h to allow binding to reach equilibrium. The samples were rapidly filtered through Whatman GF/C filters using a Brandel harvester (Brandel, Gaithersburg, Md., U.S.) and washed three times with 50 mM Tris-HCl buffer. The radioactivity retained on dried filters was determined by liquid scintillation counting after saturation with EcoLume liquid scintillation cocktail in a Wallac 1450 MicroBeta (Perkin-Elmer, Waltham, Mass., U.S.). Nonspecific binding was determined using 10 μM naloxone. Inhibitory constant (Ki) values were calculated using nonlinear regression analysis to fit a logistic equation to the competition data using GraphPad Prism, version 5.01, for Windows (GraphPad Software Inc., La Jolla, Calif.). The results presented are the mean±standard error from at least three separate assays performed in duplicate.

[2] = molecular target: T2, rat δ (C6-DOR) opioid receptor (Rattus norvegicus, UniProt P33533); experiment: Radioligand binding assay, [3H]diprenorphine displacement, DOR; settings: displacement of 0.2 nM [3H]diprenorphine, C6-DOR membranes; mean ± standard error
T2 construct: expressed in transfected cells
T2 sequence (P33533 whole entry): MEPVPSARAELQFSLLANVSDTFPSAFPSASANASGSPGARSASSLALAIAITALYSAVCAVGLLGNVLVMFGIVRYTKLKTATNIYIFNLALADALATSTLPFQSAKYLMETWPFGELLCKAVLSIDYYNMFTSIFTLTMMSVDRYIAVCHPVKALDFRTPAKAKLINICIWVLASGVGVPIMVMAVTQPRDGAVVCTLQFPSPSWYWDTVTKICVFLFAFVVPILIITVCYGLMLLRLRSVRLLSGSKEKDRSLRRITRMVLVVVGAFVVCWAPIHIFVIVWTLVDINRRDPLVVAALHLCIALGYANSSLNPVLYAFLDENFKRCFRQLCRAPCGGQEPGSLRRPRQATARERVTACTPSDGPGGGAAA
Protocol: as §1, §2

[3] = molecular target: T3, human κ (CHO-KOR) opioid receptor (Homo sapiens, UniProt P41145); experiment: Radioligand binding assay, [3H]diprenorphine displacement, KOR; settings: displacement of 0.2 nM [3H]diprenorphine, CHO-KOR membranes; mean ± standard error
T3 construct: expressed in transfected cells
T3 sequence (P41145 whole entry): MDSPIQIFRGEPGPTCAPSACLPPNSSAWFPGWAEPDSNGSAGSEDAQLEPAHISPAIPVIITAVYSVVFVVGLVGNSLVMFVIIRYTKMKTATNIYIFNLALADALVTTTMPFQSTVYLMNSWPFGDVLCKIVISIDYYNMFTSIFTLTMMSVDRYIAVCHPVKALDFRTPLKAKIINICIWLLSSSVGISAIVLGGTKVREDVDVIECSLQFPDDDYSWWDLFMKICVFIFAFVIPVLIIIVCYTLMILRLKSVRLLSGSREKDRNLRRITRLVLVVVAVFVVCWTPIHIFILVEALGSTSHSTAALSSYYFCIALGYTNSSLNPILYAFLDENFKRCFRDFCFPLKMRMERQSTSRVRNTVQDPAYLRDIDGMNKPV
Protocol: as §1, §2

[4] = molecular target: T1, rat μ (C6-MOR) opioid receptor; experiment: Stimulation of [35S]GTPγS binding, MOR; assay type: biochemical; settings: for EC50 / EC50 (nm) MOR: [35S]GTPγS binding, C6-MOR membranes, mean ± standard error; for Emax / % stimulation MOR: [35S]GTPγS maximal stimulation compared with 10 μM standard DAMGO
Protocol: as §1
(§3) Stimulation of [^35S]GTPyS Binding. Agonist stimulation of [35S]guanosine 5′-O-[γ-thio]triphosphate ([^35S]GTPγS, 1250 Ci, 46.2 TBq/mmol) binding was measured as described previously Briefly, membranes (10-20 μg of protein/tube) were incubated 1 h at room temperature in GTPyS buffer (50 mM Tris-HCl, 100 mM NaCl, 5 mM MgCl2, pH 7.4) containing 0.1 nM [^35S]GTPγS, 30 μM guanosine diphosphate (GDP), and varying concentrations of test peptides. Peptide stimulation of [^35S]GTPyS was compared with 10 μM standard compounds [D-Ala^2,N-MePhe^4,Gly-ol]encephalin (DAMGO) at MOR, D-Pen^2,5-enkephalin (DPDPE) at DOR, or […] at KOR. The reaction was terminated by rapidly filtering through GF/C filters and washing 10 times with GTPyS buffer, and retained radioactivity was measured as described above. The results presented are the mean±standard error from at least three separate assays performed in duplicate; maximal stimulation was determined using nonlinear regression analysis with GraphPad Prism (GraphPad Software Inc., La Jolla, Calif.).

[5] = molecular target: T2, rat δ (C6-DOR) opioid receptor; experiment: Stimulation of [35S]GTPγS binding, DOR; assay type: biochemical; settings: for EC50 / EC50 (nm) DOR: [35S]GTPγS binding, C6-DOR membranes, mean ± standard error; for Emax / % stimulation DOR: [35S]GTPγS maximal stimulation compared with 10 μM standard DPDPE
Protocol: as §1, §3

[6] = molecular target: T3, human κ (CHO-KOR) opioid receptor; experiment: Stimulation of [35S]GTPγS binding, KOR; assay type: biochemical
Protocol: as §1, §3

T1 sequence (P33535 whole entry): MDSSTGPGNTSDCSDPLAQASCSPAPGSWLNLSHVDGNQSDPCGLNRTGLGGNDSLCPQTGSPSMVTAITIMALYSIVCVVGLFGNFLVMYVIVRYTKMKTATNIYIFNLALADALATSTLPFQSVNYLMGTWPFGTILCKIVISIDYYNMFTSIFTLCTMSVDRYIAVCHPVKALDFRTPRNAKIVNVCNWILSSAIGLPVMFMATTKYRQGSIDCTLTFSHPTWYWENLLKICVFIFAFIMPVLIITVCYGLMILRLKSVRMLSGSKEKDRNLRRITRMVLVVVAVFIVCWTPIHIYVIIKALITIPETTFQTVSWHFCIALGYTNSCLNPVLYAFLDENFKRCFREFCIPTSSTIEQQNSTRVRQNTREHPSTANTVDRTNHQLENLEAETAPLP

SMILES	Ki [1] [nM]	Ki [2] [nM]	Ki [3] [nM]	EC50 [4] [nM]	Emax [4] [%]	EC50 [5] [nM]	Emax [5] [%]	EC50 (nm) DOR [5]	% stimulation DOR [5]	EC50 (nm) MOR [4]	% stimulation MOR [4]	EC50 ([6]; [35S]GTPγS binding, CHO-KOR membranes, mean ± standard error) [nM]	Emax ([6]; [35S]GTPγS maximal stimulation compared with 10 μM standard U-69,593) [%]
Cc1cc(O)cc(C)c1C[C@H](N)C(=O)N[C@H]1CCNc2ccc(Oc3ccccc3)cc21 [Compound 1018]	41.3 ± 6.34	277 ± 47.4	494	1300	16.6 ± 16.6	2000	19.6						
CC(=O)N1CC[C@H](NC(=O)[C@@H](N)Cc2c(C)cc(O)cc2C)c2cc(Oc3ccccc3)ccc21 [Compound 1020]	6.25 ± 1.39	92.9 ± 15.1	787	598 ± 282	60.4 ± 2.04	204	16						
COc1cc(Cl)c(C[C@H](N)C(=O)N[C@@H]2CCNc3ccc(Cc4ccccc4)cc32)c(Cl)c1 [Compound 1021]	38.1 ± 5.83	2700	1210	1390 ± 480	34.8 ± 2.52								
Cc1cc(O)cc(C)c1C[C@H](N)C(=O)N[C@@H]1CCNc2ccc(C(c3ccccc3)c3ccccc3)cc21 [Compound 1022]	0.2 ± 0.02	2.29 ± 0.36	6.91 ± 0.21	12.5 ± 8.76	24.5 ± 0.29		0						
Cc1cc(O)cc(C)c1C[C@H](N)C(=O)N[C@@H]1CCNc2cc(Cc3ccccc3)ccc21 [Compound 1023]	0.78 ± 0.27	25.8 ± 1.61	91.6	25.4 ± 22.2	18.1 ± 4.92			dns	dns				
Cc1cc(O)cc(C)c1C[C@H](N)C(=O)N[C@H]1CCNc2cc(Cc3ccccc3)ccc21 [Compound 1024]	21.1 ± 11.9	295 ± 108	1030					dns	dns	dns	dns		
Cc1cc(O)cc(C)c1C[C@H](N)C(=O)N[C@@H]1CCNc2ccc(Oc3ccc(Cl)cc3)cc21 [Compound 1025]	0.1 ± 0.03	12.1 ± 3.52	24.8	9.7 ± 1.32	52.9 ± 4.46	0.3	1.18 ± 1.18						
N[C@@H](Cc1ccc(Cl)cc1Cl)C(=O)N[C@@H]1CCNc2ccc(Cc3ccccc3)cc21 [Compound 1028]	50.6 ± 10.6	2090			13.8 ± 1.27		0						
COc1ccccc1Oc1ccc2c(c1)[C@H](NC(=O)[C@@H](N)Cc1c(C)cc(O)cc1C)CCN2 [Compound 1029]	0.36 ± 0.04	9.97 ± 0.71		46.7 ± 4.12	35.7 ± 2.58		0						
Cc1cc(O)cc(C)c1C[C@H](N)C(=O)N[C@@H]1CCNc2ccc(Oc3cccc(Cl)c3)cc21 [Compound 1030]	0.08 ± 0.01	2.59		10.1 ± 3.25	27.2 ± 2.11								
COc1ccccc1Oc1ccc2c(c1)[C@H](NC(=O)[C@@H](N)Cc1c(C)cc(O)cc1C)CCN2C(C)=O [Compound 1031]	0.27 ± 0.05	2.7		39.7 ± 17	30.5 ± 1.74								
CCC(=O)N1CC[C@@H](NC(=O)[C@@H](N)Cc2c(C)cc(O)cc2C)c2cc(CC3Cc4ccccc4C3)ccc21 [Compound 1033]	0.06 ± 0.01	0.3 ± 0.11		3.61 ± 2.02	52 ± 7.7			dns	dns				
COc1cccc2c1CC(Cc1ccc3c(c1)[C@H](NC(=O)[C@@H](N)Cc1c(C)cc(O)cc1C)CCN3)C2 (stereo partly drawn) [Compound 1035, (2S)-2-amino-3-(4-hydroxy-2,6-dimethylphenyl)-N-((4R)-6-((4-methoxy-2,3-dihydro-1H-inden-2-yl)methyl)-1,2,3,4-tetrahydroquinolin-4-yl)propanamide]	0.09	4.13 ± 2.27		1.44	32.9			dns	dns				
COc1ccc2c(c1)CC(Cc1ccc3c(c1)[C@H](NC(=O)[C@@H](N)Cc1c(C)cc(O)cc1C)CCN3)C2 (some centres unmarked) [Compound 1037]	0.26 ± 0.15	6.15 ± 2.09		354	10.9			dns	dns				
CC(=O)N1CC[C@@H](NC(=O)[C@@H](N)Cc2c(C)cc(O)cc2C)c2cccc(Cc3ccccc3)c21 [Compound 1040]	92.4	6.19		19	8.03								
Cc1cc(O)cc(C)c1C[C@H](N)C(=O)N[C@@H]1CCNc2ccc(CN3CCNCC3)cc21 [Compound 1059]	16.6 ± 8.63	1560 ± 288	11.7 ± 1.56	90.5 ± 73.2							dns		
Cc1cc(O)cc(C)c1C[C@H](N)C(=O)N[C@@H]1CCNc2ccc(CN3CCC4(CCCCC4)C3)cc21 [Compound 1105]	1.14	14.1	1.66										
Cc1cc(O)cc(C)c1C[C@H](N)C(=O)N[C@@H]1CCNc2ccc(CN3CCCC4(CCCCC4)CC3)cc21 [Compound 1106]	0.54	17	3.08										
CCCc1cc(Cc2ccccc2)cc2c1N(C(C)=O)CC[C@H]2NC(=O)[C@@H](N)Cc1c(C)cc(O)cc1C [Compound 1107]	0.35	1.95	32.7										
CC(=O)N1CC[C@@H](NC(=O)[C@@H](N)Cc2c(C)cc(O)cc2C)c2cc(Cc3ccccc3)cc(Br)c21 [Compound 1108]	0.49	1.35	33.3										
N[C@@H](Cc1c(Cl)cc(O)cc1Cl)C(=O)N[C@@H]1CCCc2ccc(Oc3ccccc3)cc21 [Compound 1119]	1.53 ± 0.64	105 ± 10.5		118 ± 76	20.7 ± 2.91			dns	dns				
Cc1cc(O)cc(C)c1C[C@H](N)C(=O)N[C@@H]1CC[C@H](C)c2ccc(Cc3ccccc3)cc21 [Compound 1120]	0.08 ± 0.02	5.85 ± 0.58		16 ± 1.94	72.3 ± 3.67			dns	dns				
Cc1cc(O)cc(C)c1C[C@H](N)C(=O)N[C@@H]1CC[C@@H](C)c2ccc(Cc3ccccc3)cc21 [Compound 1121]	0.32 ± 0.1	15.8 ± 4.72				109 ± 80.7	14.3 ± 4.34			dns	dns		
Cc1cc(O)cc(C)c1C[C@H](N)C(=O)N[C@@H]1CCC(C)(C)c2ccc(Cc3ccccc3)cc21 [Compound 1122]	0.36 ± 0.08	6.5 ± 0.66		16 ± 4.74	75.4 ± 4.06	1090 ± 654	16 ± 2.78					2100	77.8
